Test results: patent publication US20140011889A1, “Resveratrol-Containing Compositions and Methods of Use for Cardiac-Related Diseases” (Resveratrol Partners, LLC, priority 2010, published 2014)

Legend:
reactive oxygen species = experiment: Intracellular ROS by CM-H2DCFDA fluorescence in I/R heart; type: in vivo, rat; conditions: IR heart, FIG. 19
Method: The dye was injected intravenously, prior to induction of ischemia/reperfusion, and at the end of the experiments, the level of fluorescence was determined for the generation of ROS by measuring the fluorescent oxidation product CM-DCF in the cytosol, at an excitation wavelength of 480 nm and an emission wavelength of 520 nm.

[1] = tested on: biological processes (GO), cardiac tissue; experiment: Biological processes (GO) affected by altered gene expression in cardiac tissue; type: in vivo, mice
IR rat heart = experiment: Isolated working rat heart I/R: cardiac function, infarct size, apoptosis (Example 7); type: in vivo, Sprague-Dawley rats; conditions: resveratrol 5 mg/kg/day or Longevinex 100 mg/kg/day, 21 days
Method: Methods. Animals. […] Hattori et al., Am. J. Physiol. Heart. Circ. […] Mukherjee et al., Can. J. Pharmol. […] Isolated working heart preparation and assessment of cardiac function. After completing the feeding protocol, the animals were anesthetized with sodium pentobarbital (80 mg/kg, i.p.) (Abbott Laboratories, North Chicago, Ill., USA), and […] heparin sodium (500 IU/kg, i.v.) (Elkins-Sinn Inc., Cherry Hill, N.J., USA) was used as an anticoagulant. […] At the end of 10 min, baseline cardiac function like heart rate (HR, beats/min), aortic flow (AF, ml/min), coronary flow (CF, ml/min), left ventricular developed pressure (LVDP, mmHg) and first derivative of developed pressure (LVdp/dt, mmHg/sec) were recorded. […] Infarct size was measured according to the TTC method. […] To quantitate the areas of infarct in pixels, standard NIH image program was used. The infarct size was quantified and expressed in pixels. […] The fluorescence staining was viewed with a fluorescence microscope (AXIOPLAN2 IMAGING, Carl Zeiss Microimaging Inc., New York) at […] for green fluorescence of fluorescein and at 620 nm for red fluorescence of propidium iodide. The number of apoptotic cells was counted and expressed as a percent of total myocyte population.

Oc1ccc(/C=C/c2cc(O)cc(O)c2)cc1 [resveratrol, 3,4′,5-trihydroxy-trans-stilbene]
intracellular ROS concentration compared to control (reactive oxygen species): lowered
genes changed, GO: 0006596 Polyamine Biosynthetic Process ([1]; 5 genes in series): 2
genes changed, GO: 0006625 Protein Targeting To Peroxisome ([1]; 5 genes in series): 2
genes changed, GO: 0006983 ER Overload Response ([1]; 5 genes in series): 2
genes changed, GO: 0006353 Transcription Termination ([1]; 6 genes in series): 2
genes changed, GO: 0045351 Interferon Type I Biosynthetic Process ([1]; 6 genes in series): 2
genes changed, GO: 0001958 Endochondral Ossification ([1]; 8 genes in series): 2
genes changed, GO: 0007091 Mitotic Metaphase/Anaphase Transition ([1]; 8 genes in series): 2
genes changed, GO: 0007143 Female Meiosis ([1]; 8 genes in series): 2
genes changed, GO: 0045577 Regulation Of B Cell Differentiation ([1]; 8 genes in series): 2
genes changed, GO: 0046330 Positive Regulation Of JNK Cascade ([1]; 8 genes in series): 2
genes changed, GO: 0006825 Copper Ion Transport ([1]; 9 genes in series): 3
genes changed, GO: 0033554 Cellular Response To Stress ([1]; 14 genes in series): 3
genes changed, GO: 0006888 ER To Golgi Vesicle-Mediated Transport ([1]; 16 genes in series): 3
genes changed, GO: 0006919 Caspase Activation ([1]; 16 genes in series): 3
genes changed, GO: 0000723 Telomere Maintenance ([1]; 17 genes in series): 3
genes changed, GO: 0030041 Actin Filament Polymerization ([1]; 17 genes in series): 3
genes changed, GO: 0043280 Positive Regulation Of Caspase Activity ([1]; 17 genes in series): 3
genes changed, GO: 0051016 Barbed-End Actin Filament Capping ([1]; 17 genes in series): 3
genes changed, GO: 0008299 Isoprenoid Biosynthetic Process ([1]; 19 genes in series): 3
genes changed, GO: 0006446 Regulation Of Translational Initiation ([1]; 20 genes in series): 4
genes changed, GO: 0043281 Regulation Of Caspase Activity ([1]; 27 genes in series): 5
genes changed, GO: 0008064 Regulation Of Actin Polymerization And/Or Depolymerization ([1]; 30 genes in series): 4
genes changed, GO: 0050673 Epithelial Cell Proliferation ([1]; 30 genes in series): 4
genes changed, GO: 0005977 Glycogen Metabolic Process ([1]; 31 genes in series): 7
genes changed, GO: 0030832 Regulation Of Actin Filament Length ([1]; 31 genes in series): 4
genes changed, GO: 0051258 Protein Polymerization ([1]; 32 genes in series): 6
genes changed, GO: 0006112 Energy Reserve Metabolic Process ([1]; 35 genes in series): 7
genes changed, GO: 0048193 Golgi Vesicle Transport ([1]; 37 genes in series): 6
genes changed, GO: 0008154 Actin Polymerization And/Or Depolymerization ([1]; 39 genes in series): 6
genes changed, GO: 0006413 Translational Initiation ([1]; 40 genes in series): 6
genes changed, GO: 0043085 Positive Regulation Of Enzyme Activity ([1]; 40 genes in series): 5
genes changed, GO: 0045454 Cell Redox Homeostasis ([1]; 40 genes in series): 6
genes changed, GO: 0005976 Polysaccharide Metabolic Process ([1]; 42 genes in series): 9
genes changed, GO: 0007018 Microtubule-Based Movement ([1]; 72 genes in series): 9
genes changed, GO: 0007178 Transmembrane Receptor Protein Serine/Threonine Kinase Signaling Pathway ([1]; 75 genes in series): 7
genes changed, GO: 0006511 Ubiquitin-Dependent Protein Catabolic Process ([1]; 109 genes in series): 9
genes changed, GO: 0019941 Modification-Dependent Protein Catabolic Process ([1]; 111 genes in series): 9
genes changed, GO: 0006457 Protein Folding ([1]; 124 genes in series): 13
genes changed, GO: 0007017 Microtubule-Based Process ([1]; 155 genes in series): 12
genes changed, GO: 0006605 Protein Targeting ([1]; 161 genes in series): 12
genes changed, GO: 0008380 RNA Splicing ([1]; 162 genes in series): 12
genes changed, GO: 0006281 DNA Repair ([1]; 178 genes in series): 13
genes changed, GO: 0006974 Response To DNA Damage Stimulus ([1]; 217 genes in series): 15
genes changed, GO: 0044262 Cellular Carbohydrate Metabolic Process ([1]; 221 genes in series): 18
genes changed, GO: 0050790 Regulation Of Catalytic Activity ([1]; 241 genes in series): 21
genes changed, GO: 0005975 Carbohydrate Metabolic Process ([1]; 316 genes in series): 21
genes changed, GO: 0007264 Small Gtpase Mediated Signal Transduction ([1]; 320 genes in series): 22
genes changed, GO: 0006412 Translation ([1]; 338 genes in series): 25
genes changed, GO: 0006512 Ubiquitin Cycle ([1]; 356 genes in series): 27
genes changed, GO: 0006886 Intracellular Protein Transport ([1]; 357 genes in series): 26
genes changed, GO: 0006091 Generation Of Precursor Metabolites And Energy ([1]; 390 genes in series): 24
genes changed, GO: 0007010 Cytoskeleton Organization And Biogenesis ([1]; 403 genes in series): 26
genes changed, GO: 0046907 Intracellular Transport ([1]; 523 genes in series): 43
genes changed, GO: 0009059 Macromolecule Biosynthetic Process ([1]; 525 genes in series): 35
genes changed, GO: 0015031 Protein Transport ([1]; 581 genes in series): 38
genes changed, GO: 0045184 Establishment Of Protein Localization ([1]; 610 genes in series): 38
genes changed, GO: 0051649 Establishment Of Cellular Localization ([1]; 653 genes in series): 45
genes changed, GO: 0008104 Protein Localization ([1]; 663 genes in series): 38
genes changed, GO: 0044249 Cellular Biosynthetic Process ([1]; 710 genes in series): 45
genes changed, GO: 0006996 Organelle Organization And Biogenesis ([1]; 897 genes in series): 53
genes changed, GO: 0009058 Biosynthetic Process ([1]; 979 genes in series): 60
share of the 220 biological processes with affected genes, calorie restricted mice ([1]; mouse cardiac tissue): failed to affect any genes in any of these processes
cardiac output function (aortic flow, coronary flow, LVDP, LVmax dp/dt) (IR rat heart; 2 hour reperfusion): improved
myocardial infarct size and cardiomyocyte apoptosis (IR rat heart; 2 h reperfusion): reduce
